From patent publication US5631293A, “Preparation of amino acid-substituted benzoylguanidines as diagnostic agents” (priority 1994, dated 1997)
pIC50: −log10 of the molar value. Structures can show the parent of a compound that is named as a salt.

Legend:
[1] = target: T1, Na+/H^+ exchanger of rabbit erythrocytes (Oryctolagus cuniculus, UniProt P23791); test: Inhibition of the Na+/H+ exchanger of rabbit erythrocytes (amiloride-sensitive Na+ influx, flame photometry); format: cell-based, rabbit (White New Zealand); settings: cholesterol diet 2% six weeks, pH 7.4, 37° C
T1 construct: determine the Na^+ influx into the erythrocytes via Na^+ /H^+ exchange by flame photometry; endogenous in cells; host or cells: erythrocytes in blood from the ear arteries of cholesterol-fed White New Zealand rabbits (Ivanovas)
Description: Inhibition of the Na+/H^+ exchanger of rabbit erythrocytes
White New Zealand rabbits (Ivanovas) were given a standard diet with 2% of cholesterol for six weeks in order to activate the Na^+ /H^+ exchange and in this way to be able to determine the Na^+ influx into the erythrocytes via Na^+ /H^+ exchange by flame photometry. The blood was removed from the ear arteries and rendered noncoagulable by 25 IU of potassium-heparin. A portion of each sample was used for duplicate determination of the hematocrit by centrifugation. Aliquots of in each case 100 μl were used for measurement of the starting Na^+ content of the erythrocytes.
To determine the amiloride-sensitive sodium influx, 100 μl of each blood sample were incubated in 5 ml portions each of a hyperosmolar salt/sucrose medium (mmol/l: 140 NaCl, 3 KCl, 150 sucrose, 0.1 ouabain, 20 tris-hydroxymethylaminomethane) at pH 7.4 and 37° C. The erythrocytes were then washed three times with ice-cold MgCl2 /ouabain solution (mmol/l: 112 MgCl2, 0.1 ouabain) and hemolyzed in 2.0 ml of distilled water. The intracellular sodium content was determined by flame photometry.
The Na^+ net influx was calculated from the difference between the starting sodium values and the sodium content of the erythrocytes after incubation. The sodium influx which can be inhibited by amiloride resulted from the difference between the sodium content of the erythrocytes after incubation with and without 3×10^-4 mol/l of amiloride. This procedure was also followed with compounds according to the invention.

[2] = tested on: disturbances in cardiac rhythm; settings: Circulation 79, 1257-63 (1989); cited from earlier work
[3] = tested on: artificially induced ventricular fibrillation on rat hearts; settings: isolated rat hearts, cited from earlier work

T1 sequence (P23791 whole entry): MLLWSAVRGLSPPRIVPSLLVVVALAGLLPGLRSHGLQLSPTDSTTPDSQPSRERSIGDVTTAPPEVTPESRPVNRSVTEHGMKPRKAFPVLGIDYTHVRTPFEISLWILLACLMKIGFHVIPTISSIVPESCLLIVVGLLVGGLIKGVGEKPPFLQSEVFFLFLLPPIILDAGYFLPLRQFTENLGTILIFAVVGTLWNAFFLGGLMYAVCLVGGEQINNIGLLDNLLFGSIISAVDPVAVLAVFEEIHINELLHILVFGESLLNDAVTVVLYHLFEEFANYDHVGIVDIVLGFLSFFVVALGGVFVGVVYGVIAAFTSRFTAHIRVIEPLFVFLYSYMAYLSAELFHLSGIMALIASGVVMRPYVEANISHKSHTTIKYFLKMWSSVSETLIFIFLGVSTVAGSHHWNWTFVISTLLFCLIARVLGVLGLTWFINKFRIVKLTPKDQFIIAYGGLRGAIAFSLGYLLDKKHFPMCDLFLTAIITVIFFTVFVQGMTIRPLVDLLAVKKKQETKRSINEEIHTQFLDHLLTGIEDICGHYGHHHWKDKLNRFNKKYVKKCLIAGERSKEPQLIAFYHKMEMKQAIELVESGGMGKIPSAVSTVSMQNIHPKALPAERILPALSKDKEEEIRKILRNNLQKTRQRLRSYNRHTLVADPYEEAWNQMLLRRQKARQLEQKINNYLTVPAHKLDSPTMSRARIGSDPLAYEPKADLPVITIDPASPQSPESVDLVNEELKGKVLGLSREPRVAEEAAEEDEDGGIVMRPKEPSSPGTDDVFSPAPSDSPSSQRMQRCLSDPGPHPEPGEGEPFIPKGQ

NC(N)=NC(=O)c1ccc(Oc2ccc(CC(N)C(=O)O)cc2)c(C(F)(F)F)c1 (stereo not shown) [Example 4, 4-[(4-Guanidinocarbonyl-2-trifluoromethyl)phenoxy]phenylalanine, dihydrochloride]
pIC50 [1]: 7.59

CC(C)(C)OC(=O)N[C@@H](Cc1ccc(Oc2ccc(C(=O)N=C(N)N)cc2S(C)(=O)=O)cc1)C(=O)O [Example 1, N-tert-Butoxycarbonyl-4-[(4-guanidinocarbonyl-2-methylsulfonyl)phenoxy]-phenylalanine]
pIC50 [1]: 6.37

CS(=O)(=O)c1cc(C(=O)N=C(N)N)ccc1Oc1ccc(C[C@H](N)C(=O)O)cc1 [Example 2, 4-[(4-Guanidinocarbonyl-2-methylsulfonyl)phenoxy]phenylalanine]
pIC50 [1]: 6.00

NC(N)=NC(=O)c1nc(Cl)c(N)nc1N [amiloride]
antiarrhythmic effect [2]: only weak
side-effects accompanying the antiarrhythmic effect [2]: antihypertensive and saluretic action
suppression of artificially induced ventricular fibrillation [3]: suppressed completely

CCN(c1nc(N)c(C(=O)N=C(N)N)nc1Cl)C(C)C [ethylisopropylamiloride]
potency against ventricular fibrillation compared with amiloride ([3]; relative to amiloride): even more potent than amiloride
